# Assay results published in ChEMBL document CHEMBL1201862, “PubChem BioAssay data set” (2004).
#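 Briefly, cells in 96-well plates were exposed to five compound concentrations for 48 h, and endpoints were estimated by linear interpolation. At the GI50, growth is halved.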 Calls of active or inactive are those of the source. Rule as the data show it: active = GI50 up to about 1.1 µM and inactive = higher.
# Experiments:
# Experiment in all cases: NCI anticancer screen, dose series, 48 h
# HOP-62 = system: HOP-62
# SK-MEL-28 = system: SK-MEL-28
# HCT-116 = system: HCT-116
# TK-10 = system: TK-10
# Malme-3M = system: Malme-3M
# SF-539 = system: SF-539
# MDA-MB-435 = system: MDA-MB-435
# COLO 205 = system: COLO 205
# IGROV-1 = system: IGROV-1
# NCI-H460 = system: NCI-H460
# UACC-257 = system: UACC-257
# NCI-H23 = system: NCI-H23
# U-251 = system: U-251
# ACHN = system: ACHN
# OVCAR-5 = system: OVCAR-5
# NCI/ADR-RES = system: NCI/ADR-RES
# OVCAR-4 = system: OVCAR-4
# CCRF-CEM = system: CCRF-CEM
# SK-MEL-2 = system: SK-MEL-2
# SNB-75 = system: SNB-75
# SK-OV-3 = system: SK-OV-3
# SK-MEL-5 = system: SK-MEL-5
# SR = system: SR
# HL-60 = system: HL-60
# Hs-578T = system: Hs-578T
# HT-29 = system: HT-29
# PC-3 = system: PC-3
# RXF 393 = system: RXF 393
# CAKI-1 = system: CAKI-1
# RPMI-8226 = system: RPMI-8226
# MDA-N = system: MDA-N
# NCI-H226 = system: NCI-H226
# HOP-92 = system: HOP-92
# UACC-62 = system: UACC-62
# HCT-15 = system: HCT-15
# MCF7 = system: MCF7
# MDA-MB-231 = system: MDA-MB-231
# MOLT-4 = system: MOLT-4
# EKVX = system: EKVX
# A549 = system: A549
# KM12 = system: KM12
# BT-549 = system: BT-549
# T47D = system: T47D
# K562 = system: K562
# SF-268 = system: SF-268
# NCI-H522 = system: NCI-H522
# HCC 2998 = system: HCC 2998
# SN12C = system: SN12C
# M14 = system: M14
# SW-620 = system: SW-620
# 786-0 = system: 786-0
# OVCAR-8 = system: OVCAR-8
# A498 = system: A498
# SF-295 = system: SF-295
# SNB-19 = system: SNB-19
# OVCAR-3 = system: OVCAR-3
# DU-145 = system: DU-145
# LOX IMVI = system: LOX IMVI
# UO-31 = system: UO-31
compound,measurement,setting,value
CC(CC[C@@H](O)C(C)(C)O)C1[C@@H](O)CC2(C)C3CC(O)C4C(C)(C)[C@@H](OC5OC(CO)C(O)C(O)C5O)CC[C@@]45C[C@@]35CC[C@]12C (stereo not given in full),GI50,HOP-62,> 10 µM (inactive)
same,GI50,SK-MEL-28,> 10 µM (inactive)
same,GI50,HCT-116,> 10 µM (inactive)
same,GI50,TK-10,> 10 µM (inactive)
same,GI50,Malme-3M,> 10 µM (inactive)
same,GI50,SF-539,> 10 µM (inactive)
same,GI50,MDA-MB-435,> 10 µM (inactive)
same,GI50,COLO 205,> 10 µM (inactive)
same,GI50,IGROV-1,> 10 µM (inactive)
same,GI50,NCI-H460,> 10 µM (inactive)
same,GI50,UACC-257,> 10 µM (inactive)
same,GI50,NCI-H23,> 10 µM (inactive)
same,GI50,U-251,> 10 µM (inactive)
same,GI50,ACHN,> 10 µM (inactive)
same,GI50,OVCAR-5,> 10 µM (inactive)
same,GI50,NCI/ADR-RES,> 10 µM (inactive)
same,GI50,OVCAR-4,> 10 µM (inactive)
same,GI50,CCRF-CEM,> 10 µM (inactive)
same,GI50,SK-MEL-2,> 10 µM (inactive)
same,GI50,SNB-75,> 10 µM (inactive)
same,GI50,SK-OV-3,> 10 µM (inactive)
same,GI50,SK-MEL-5,> 10 µM (inactive)
same,GI50,SR,> 10 µM (inactive)
same,GI50,HL-60,> 10 µM (inactive)
same,GI50,Hs-578T,> 10 µM (inactive)
same,GI50,HT-29,> 10 µM (inactive)
same,GI50,PC-3,> 10 µM (inactive)
same,GI50,RXF 393,> 10 µM (inactive)
same,GI50,CAKI-1,> 10 µM (inactive)
same,GI50,RPMI-8226,> 10 µM (inactive)
same,GI50,MDA-N,> 10 µM (inactive)
same,GI50,NCI-H226,8.79 µM (inactive)
same,GI50,HOP-92,> 10 µM (inactive)
same,GI50,UACC-62,> 10 µM (inactive)
same,GI50,HCT-15,> 10 µM
same,GI50,MCF7,> 10 µM (inactive)
same,GI50,MDA-MB-231,> 10 µM (inactive)
same,GI50,MOLT-4,> 10 µM (inactive)
same,GI50,EKVX,> 10 µM (inactive)
same,GI50,A549,> 10 µM (inactive)
same,GI50,KM12,> 10 µM (inactive)
same,GI50,BT-549,> 10 µM (inactive)
same,GI50,T47D,> 10 µM (inactive)
same,GI50,K562,> 10 µM (inactive)
same,GI50,SF-268,> 10 µM (inactive)
same,GI50,NCI-H522,> 10 µM (inactive)
same,GI50,HCC 2998,> 10 µM (inactive)
same,GI50,SN12C,> 10 µM (inactive)
same,GI50,M14,> 10 µM (inactive)
same,GI50,SW-620,> 10 µM (inactive)
same,GI50,786-0,> 10 µM (inactive)
same,GI50,OVCAR-8,> 10 µM (inactive)
same,GI50,A498,> 10 µM (inactive)
same,GI50,SF-295,> 10 µM (inactive)
same,GI50,SNB-19,> 10 µM (inactive)
same,GI50,OVCAR-3,> 10 µM (inactive)
same,GI50,DU-145,> 10 µM (inactive)
CSc1ccc2c(c1)C(N1CCN(C)CC1)Cc1ccccc1S2 (stereo not given),GI50,HOP-62,8.07 µM (inactive)
same,GI50,HCT-116,3.84 µM (inactive)
same,GI50,TK-10,3.35 µM (inactive)
same,GI50,Malme-3M,1.71 µM (inactive)
same,GI50,SF-539,6.11 µM (inactive)
same,GI50,MDA-MB-435,2.32 µM (inactive)
same,GI50,COLO 205,1.98 µM (inactive)
same,GI50,IGROV-1,2.17 µM (inactive)
same,GI50,NCI-H460,2.47 µM (inactive)
same,GI50,UACC-257,2.07 µM (inactive)
same,GI50,NCI-H23,13.9 µM (inactive)
same,GI50,U-251,4.43 µM (inactive)
same,GI50,ACHN,3.25 µM (inactive)
same,GI50,OVCAR-5,2.67 µM (inactive)
same,GI50,LOX IMVI,2.01 µM (inactive)
same,GI50,NCI/ADR-RES,5.56 µM (inactive)
same,GI50,OVCAR-4,2.3 µM (inactive)
same,GI50,CCRF-CEM,0.219 µM (active)
same,GI50,SK-MEL-2,2.72 µM (inactive)
same,GI50,SNB-75,< 0.01 µM (active)
same,GI50,SK-OV-3,13.9 µM (inactive)
same,GI50,SK-MEL-5,1.82 µM (inactive)
same,GI50,SR,2.3 µM (inactive)
same,GI50,HL-60,2.69 µM (inactive)
same,GI50,Hs-578T,4.4 µM (inactive)
same,GI50,HT-29,2.33 µM (inactive)
same,GI50,PC-3,4.3 µM (inactive)
same,GI50,RXF 393,2.81 µM (inactive)
same,GI50,CAKI-1,3.65 µM (inactive)
same,GI50,RPMI-8226,1.91 µM (inactive)
same,GI50,MDA-N,3.07 µM (inactive)
same,GI50,NCI-H226,7.8 µM (inactive)
same,GI50,HOP-92,1.49 µM (inactive)
same,GI50,UACC-62,2.05 µM (inactive)
same,GI50,HCT-15,4.15 µM
same,GI50,MCF7,2.36 µM (inactive)
same,GI50,MDA-MB-231,3.47 µM (inactive)
same,GI50,MOLT-4,2.47 µM (inactive)
same,GI50,EKVX,3.34 µM (inactive)
same,GI50,A549,7.18 µM (inactive)
same,GI50,KM12,2.62 µM (inactive)
same,GI50,BT-549,4.33 µM (inactive)
same,GI50,T47D,8.04 µM (inactive)
same,GI50,K562,1.94 µM (inactive)
same,GI50,SF-268,3.43 µM (inactive)
same,GI50,NCI-H522,2.99 µM (inactive)
same,GI50,HCC 2998,11.1 µM (inactive)
same,GI50,SN12C,6.28 µM (inactive)
same,GI50,UO-31,3.63 µM (inactive)
same,GI50,M14,1.95 µM (inactive)
same,GI50,SW-620,6.01 µM (inactive)
same,GI50,786-0,4.47 µM (inactive)
same,GI50,OVCAR-8,6.84 µM (inactive)
same,GI50,A498,9.79 µM (inactive)
same,GI50,SF-295,3.83 µM (inactive)
same,GI50,SNB-19,13.3 µM (inactive)
same,GI50,OVCAR-3,8.91 µM (inactive)
same,GI50,DU-145,10.7 µM (inactive)
